One series has as its system Huh7.5.1 cells. Briefly: Cytotoxicity/cell viability assay (CellTiter-Glo). The format is cell-based. The conditions noted are these: 48 hours; hEP up to 100 μg/ml (~14 μM). The method, then: FIGS. 1A-1C. A human apoE derived peptide (hEP) suppresses HCV infection. (A) Schematic illustration of apoE protein domains and the amino acid sequences of hEP and mEP peptides. The amino acid sequences shown are hEP-1 (SEQ ID NO: 6) and mEP (SEQ ID NO: 20). (B) Dose dependent inhibition of HCVcc infection by hEP. Huh7.5.1 cells were infected with JFH-1 HCVcc-Luc (MOI˜0.5) in the presence of hEP or mEP for 2 hours. After removal of virus and peptides, cells were further incubated for 48 hours prior to luciferase assay. Data are presented as % inhibition relative to control infections in which cells were treated with DMSO (0%). Results are expressed as mean±standard deviation (s.d.) (n=3). (C). Huh7.5.1 cells were treated with hEP or DMSO at indicated doses for 48 hours. The effect of hEP on cell viability was measured by a CellTiter Glo assay kit.
Huh7.5.1 cells (10^5 per well) were treated with hEP or DMSO at various concentrations for 48 hours in 24-well plates. The numbers of viable cells in culture were determined using the CELLTITER-GLO® Cell Viability Luminescent Assay kit according to the manufacturer's instruction (Promega).
Background: Cellular ATP, detected with luciferase, serves as a proxy for viable cell number.

Series [1] relates to HCVcc-luc. Put plainly: Time-of-addition assay. The format is cell-based, Hepatitis C virus. Particulars: 10 nM bafilomycin A1. The method, then:
FIGS. 5A-5D. hEP inhibits HCV entry at the attachment step. (A) HCVcc-luc was first mixed with either scrambled peptide or hEP-2 (20 μg/ml) for one hour at room temperature. In Group 1, mixed virus was directly added to Huh7.5.1 cells, whereas in Group 2, virus was purified through ultracentrifuge at 28,000×g for 4 hours in order to remove peptide, and then used to infect Huh7.5.1 cells. **p<0.005. (B) The kinetics of hEP- and bafilomycin A1-mediated inhibition were determined by time-of-addition assays, as described in the examples section. Fitted lines represent sigmoidal time-dependent curves (mean of n=3; error bars, s.d.). […] Heparin (200 μg/ml), anti-CD81 monoclonal antibody (5 μg/ml), hEP (20 μg/ml), or bafilomycin A1 (10 nM) were present in the media either continuously, during the 4° C. incubation only (attachment), or during the 37° C. incubation phase only (post-attachment). % Inhibition was calculated as 100-percent infection relative to control infections containing DMSO or an isotype antibody control containing 0.01% sodium azide (for anti-CD81 only) (mean of n=3; error bars, s.d.). (D) The effects of hEP (2.7 μM) or scrambled peptide on HCV binding were determined as described in the examples section. Results were calculated as relative RNA copies with numbers obtained from the scrambled peptide treated wells set to 100 (mean of n=3; error bars, s.d.). **p<0.005. […]

For series [2], the system named is HCVcc-luc. Put plainly: Attachment versus post-attachment inhibition assay. The conditions noted are these: heparin 200 μg/ml, anti-CD81 5 μg/ml, hEP 20 μg/ml, bafilomycin A1 10 nM. The format is cell-based, Hepatitis C virus. How it is done:
FIGS. 5A-5D. hEP inhibits HCV entry at the attachment step. (A) HCVcc-luc was first mixed with either scrambled peptide or hEP-2 (20 μg/ml) for one hour at room temperature. In Group 1, mixed virus was directly added to Huh7.5.1 cells, whereas in Group 2, virus was purified through ultracentrifuge at 28,000×g for 4 hours in order to remove peptide, and then used to infect Huh7.5.1 cells. **p<0.005. (B) The kinetics of hEP- and bafilomycin A1-mediated inhibition were determined by time-of-addition assays, as described in the examples section. Fitted lines represent sigmoidal time-dependent curves (mean of n=3; error bars, s.d.). (C) HCVcc-Luc was added to Huh7.5.1 cells at 4° C. and incubated for 1.5 hrs. Unbound virus was removed by 2 washes with cold media, fresh media was added, and the cells were shifted to 37° C. to allow synchronous infection to proceed. Heparin (200 μg/ml), anti-CD81 monoclonal antibody (5 μg/ml), hEP (20 μg/ml), or bafilomycin A1 (10 nM) were present in the media either continuously, during the 4° C. incubation only (attachment), or during the 37° C. incubation phase only (post-attachment). % Inhibition was calculated as 100-percent infection relative to control infections containing DMSO or an isotype antibody control containing 0.01% sodium azide (for anti-CD81 only) (mean of n=3; error bars, s.d.). (D) The effects of hEP (2.7 μM) or scrambled peptide on HCV binding were determined as described in the examples section. Results were calculated as relative RNA copies with numbers obtained from the scrambled peptide treated wells set to 100 (mean of n=3; error bars, s.d.). **p<0.005.
To investigate the mechanistic action of hEP, three sets of experiments were conducted. First, hEP-2 (SEQ ID NO: 9) or scrambled peptide-treated HCVcc were purified through ultracentrifugation to remove the peptide and then used to infect naïve Huh7.5.1 cells. […] Second, to determine the kinetics of inhibition, a time-of-addition experiment was conducted. HCV remained sensitive to bafilomycin A1, a fusion inhibitor that prevents endosome acidification, until 3 hours after the 37° C. temperature shift (FIG. 5B), which is consistent with previous reports (Koutsoudakis et al., J Virol 2006; 80:5308-5320). […] In order to determine whether hEP-2 (SEQ ID NO: 9) blocks infection at the initial attachment step or a downstream event in the HCV entry process, hEP-2 (SEQ ID NO: 9) was either added together with HCVcc to cells during the 4° C. attachment step only, and then removed prior to shifting the temperature to 37° C., or added only after the temperature shift. As a positive control, hEP-1 was present during the entire course of the experiment. […] Finally, the direct binding of virions to cell surface was measured using a real-time PCR based assay.

In the case of `C[C@H](N)C(=O)N[C@@H]1[C@H]2C(=C(O)C[C@@H](O)[C@@H]2O)C(=O)O[C@]1(C)C(Cl)Cl` [Bactobolin, reference compound], in the series on Huh7.5.1 cells, the “Cytotoxicity (cell viability)” value is given as “induced significant cell death”.
Consider `CO/C1=C\C(C)=C\[C@@H](C)[C@@H](O)[C@@H](C)C/C(C)=C/C=C/[C@H](OC)[C@@H]([C@@H](C)[C@@H](O)[C@H](C)[C@@]2(O)C[C@@H](O)[C@H](C)[C@@H](C(C)C)O2)OC1=O` [bafilomycin A1, reference compound], for which, in the series on HCVcc-luc [1], the “Time after 37° C. temperature shift until which HCV remained sensitive” value is at most 3 h. Further, the “Inhibition when present after the temperature shift only (post-attachment)” value with HCVcc-luc [2] is “most effective”.
